# Measured values taken from patent publication US20220127297A1, “Novel Antibacterial 3"-Derivatives Of 4,6-Disubstituted 2,5-Dideoxystreptamine Aminoglycoside Antibiotics” (AGILeBiotics B.V., priority 2018, published 2022).
# Tested on: Enterobacter cloacae 3MRGN (clinical bronchial aspirate isolate)
# Assay: MIC 50, broth micro-dilution, clinical isolate
# Type: cell-based
# Details: Enterobacter cloacae, E. Cloacae clinical isolate; read-out: MIC 50
# Text: 3.2 Against Selected Bacteria of the ESKAPE Panel and Enterococcus faecalis (DSM Strains)
# Tested reference compounds. Amikacin sulfate (Cat. No. 01693, Chem-Impex), Gentamicin sulfate (Cat. No. G4918, Sigma Aldrich).
# Microbial strains. Enterococcus faecalis DSM 2570, Klebsiella pneumoniae DSM 26371, Acinetobacter baumannii DSM 105126, Enterobacter cloacae 3MRGN (clinical bronchial aspirate isolate).
# Culture media and equipment. BBL™ Mueller Hinton Broth 2 (Lot. BCBW1143, Cat. No. 70192, Sigma); Trypcase Soy Blood-agar plates (Cat. No. 43001, Biomérieux); Cryoinstant (contains 15% glycerol; Cat. No. 822070ZA, VWR International); GasPak™ EZ Standard Incubation Container (Cat. No. 260671, Becton Dickinson); GasPak™ EZ Campy Container System Sachets (Cat. No. 260680, Becton Dickinson); 96-well deep well plate, 1 mL (Cat. No. 0030506.200, Eppendorf); Plate lid (Cat. No. 0030131.525, Eppendorf); 96-well plate, F-bottom (Cat. No. 260860, Nunc); Incubator (Sartorius Certomat BS-1); Laminar flow (Heraeus HS12); UV/VIS meter (Perkin Elmer Lambda Bio+); Platereader (Tecan Infinite M200 Pro).
# Compound preparation. Compounds were prepared in MH2 media at a concentration of 5 mM and stored at 4° C. For testing, solutions of 128 μM were prepared in MH2, for tests against E. faecalis a solution of 512 μM was prepared. Out of these working solutions, 400 μL was transferred to wells in the first column of 96-well deep well plates. Each compound was transferred in triplicate. Plates were previously filled with 200 μL of MH2 media in all wells except for the wells in the first column. After compound and antibiotic addition, the compounds were serial two-fold diluted by transferring 200 μL from the first to the second column, then from the second to the third column and so on. Finally, 200 μL was removed from the last column.
# Inoculum preparation. Microorganisms used were all revived from 15% glycerol storage in Croinstant tubes at −28° C. by plating them on blood agar plates. A. baumanni, and E. cloacae were grown aerobically at 37° C., E. faecalis was grown microaerophilically at 37° C., and K. pneumoniae was grown aerobically at 37° C. Plates were stored at 4° C. for up to two weeks, after which new plates were prepared from −28° C. A single colony was inoculated in MH2 media and grown at 37° C. and 200 rpm to an optical density (measured by UV/Vis spectroscopy) of 0.6-0.8 at 600 nm. Out of these suspensions, actual inoculums were prepared by diluting them to an optical density of 0.1 in MH2 media. From these inoculums, 200 μL was transferred to each well, resulting in a final compound concentration range of 64 μM-31.3 nM for, K. pneumoniae, A. baumanni, and E. cloacae, and 256 μM-125 nM for E. faecalis. Plates inoculated with E. faecalis were placed inside a GasPak™ Container System with GasPak™ Campy Container System sachets. All plates were incubated at 200 rpm for 18 h under the microorganism culturing conditions mentioned above.
# MIC determination. After 18 h of growth, 200 μL was transferred to a 96-well F-bottom plate. The optical density was determined by a plate reader at 600 nm, with 10 s shaking before reading. Triplicate measurements were averaged, and a growth curve was plotted in Excel. The first column in which the growth reached half the value of maximum growth was determined as the MIC50 value for that particular compound.
# MIC50. The MIC50 of a compound was assigned at which the bacterial growth reached half the value of maximum growth.
row,SMILES,MIC50 [µM]
1,"C[C@@H](N)CCNC(=N)NC1[C@@H](O)C(OC2[C@@H](F)[C@H](O[C@H]3OC(CN)[C@@H](O)CC3N)C(N)C[C@H]2NC(=O)[C@@H](O)CCN)O[C@H](CO)[C@H]1O (stereo partly drawn) [ABX5047, Tobra-AHB-F-Gua (R) 3-amino-butyl]",0.25 to 0.5
2,"N=C(NCc1ccncc1)NC1[C@@H](O)C(OC2[C@@H](F)[C@H](O[C@H]3OC(CN)[C@@H](O)CC3N)C(N)C[C@H]2NC(=O)[C@@H](O)CCN)O[C@H](CO)[C@H]1O (some centres unmarked) [ABX5048, Tobra-AHB-F-Gua pyridin-4-yl methyl]",1
3,"N=C(NCc1cnc[nH]1)NC1[C@@H](O)C(OC2[C@@H](F)[C@H](O[C@H]3OC(CN)[C@@H](O)CC3N)C(N)C[C@H]2NC(=O)[C@@H](O)CCN)O[C@H](CO)[C@H]1O (some centres unmarked) [ABX5050, Tobra-AHB-F-Gua imidazol-5-yl methyl]",1 to 2
4,"N=C(NCC1CCOC1)NC1[C@@H](O)C(OC2[C@@H](F)[C@H](O[C@H]3OC(CN)[C@@H](O)CC3N)C(N)C[C@H]2NC(=O)[C@@H](O)CCN)O[C@H](CO)[C@H]1O (some centres unmarked) [ABX5051, Tobra-AHB-F-Gua tetrahydrofuran-3-yl methyl]",1
5,"NCC[C@H](O)C(=O)N[C@@H]1C[C@H](N)[C@@H](O[C@H]2O[C@H](CN)[C@@H](O)[C@H](O)[C@H]2O)[C@H](O)[C@H]1O[C@H]1O[C@H](CO)[C@@H](O)[C@H](N)[C@H]1O [Amikacin, amikacin, reference compound]",2
